Measurements as given in patent US6506790B1, “Compounds and methods” (SmithKline Beecham Corporation, priority 1999, dated 2003).

melting point: 190 to 192 °C
SMILES: CNC1CC(C)(C)Oc2cc3c(cc21)C(c1cccc(Cl)c1)CC(C)(C)O3 (stereo not shown) [Example 4, 6-(3-chlorophenyl)-3,4,7,8-tetrahydro-N-methyl-2,2,8,8-tetramethyl-2H,6H-benzo[1,2-b:5,4-b′]dipyran-4-amine]
